Common to all, as to type: cell-based
Assay [1] relates to EGF-induced EMT in NBT-II cells. Description: EMT spot migration assay, EGF-induced. The conditions noted are these: for pIC50: read-out: Cell Dispersion IC 50, EGF; for Cell dispersion pattern at T2 (FIG. 1D): 6.67 μM compound and EGF. On the procedure: (§1) NBT-II cells were stably transfected with mcherry-fluorescent H2B and maintained in DMEM supplemented with 10% fetal bovine serum (FBS, Thermo Scientific), 1 μg/ml puromycin (Sigma) and 100 units/ml penicillin-streptomycin (1× pen-strep, Invitrogen). Cells were grown to 80% confluency in tissue culture flasks prior to plating. Cells were trypsinized and concentrated to a density of 5×10^6 cell/ml in CO2-independent medium (Invitrogen) supplemented with 10% FBS. The cell suspension was then evenly dispersed into the wells of two columns of a 96-well V-bottom plate. Using a robotic liquid-handling station (Bravo, Agilent Technologies), 0.5 μl of cell suspension was transferred from the two columns of the cell suspension-loaded plate and deposited into the center of the wells of two columns of a 96-well clear bottom, black assay plate (Corning). This process was repeated six times so that all 96 wells of the assay plate were deposited with a cell suspension spot. The plate was then sealed to minimize evaporation of the cell suspension spots and transferred to a 37° C., 5% CO2 incubator to allow for cells to attach to the culture surface. After 1 hour, the plate was gently washed with medium once to remove unattached cells, refreshed with 100 μl of assay medium (DMEM supplemented with 10% FBS and 1× pen-strep), and then further incubated to allow for cell-cell contacts to establish in the cell colonies.
(§2) Four tiled, non-overlapping images were acquired around the center of each well, and were then stitched together during image analysis to generate a montage covering an area of 3.2 mm×3.2 mm. These images (T1) represent the initial state of the cell colonies before EMT induction.
(§3) After the T1 images were acquired, 1 μl of test compounds were transferred from compound stock plates and added to the assay plates. Appropriate negative controls (1 μl DMSO) and positive controls (1 μl 1.0 mM compound in DMSO) were also added into columns 1 and 12 of each assay plate, respectively. […] The cultures were then further incubated overnight.
(§4) The next day, 50 μl of growth factor-containing medium was added to each well of the assay-plates. For each of the growth factor-induced EMT spot migration assays, the final growth factor concentrations in each well is optimized to be 20 ng/ml EGF (Sigma), 4 ng/ml HGF (Calbiochem) or 150 ng/ml IGF-1 (R&D Systems), respectively. The cultures were then incubated for another 24 hours, to allow for EMT and sufficient cell motility/dispersion to occur in the cell colonies.
(§5) Finally, the cell colonies were imaged again using the microplate imager, as described above. These images (T2) represent the final state of the cell colonies after compound treatment and EMT induction. The acquired T1 and T2 image sets for each assay plate were then sent for image analysis.
(§6) The acquisition of each well was obtained by four adjacent field images with no interstice in between. Each field image was loaded and nuclei were initially segmented independently of other fields to prevent artifact at the field border. Nuclei segmentation was achieved by combining a wavelet transform which is robust to noise and unhomogeneous background, and a watershed algorithm based on intensities to split nuclei clusters. Mask of nuclei segmentation of the different fields were then stitched together in order to obtain a large segmentation of the whole well. Cell bodies were estimated by applying a morphological dilation on the nucleus segmentation using a disk of 30 pixels (48 μm) in diameter. In cells that are contiguous, such as in a cell colony, nuclei segmentation dilation will result in the formation of continuous region areas with surrounding cells which can then be identified as colonies.
(§7) Total cell number and spreading coefficient values for each well were then exported into an Excel sheet.

In assay [2] the test system is HGF-induced EMT in NBT-II cells. Description: EMT spot migration assay, HGF-induced. The conditions noted are these: for pIC50: HGF-induced EMT (4 ng/ml HGF), CDR dose response from 6.67 μM, read-out: Cell Dispersion IC 50, HGF. On the procedure: as §1, §2, §3, §4, §5, §6, §7
Assay [3] concerns IGF-1-induced EMT in NBT-II cells. Briefly: EMT spot migration assay, IGF-1-induced. The conditions noted are these: IGF-1-induced EMT (150 ng/ml IGF-1), CDR dose response from 6.67 μM, read-out: Cell Dispersion IC 50, IGF-1. On the procedure: as §1, §2, §3, §4, §5, §6, §7
A further assay deals with E-cadherin. Description: Western blot of EMT marker E-cadherin in growth factor-treated NBT-II cells. The conditions noted are these: NBT-II cells, 0.5, 2 and 8 μM compound overnight, then EGF, HGF or IGF-1 for 24 h (FIG. 7). The protocol: NBT-II cells were treated with compounds at 0.5, 2 and 8 μM overnight and incubated with a growth factor for 24 h. Cells were lysed with protease/phosphatase inhibitor-containing RIPA buffer. Proteins are separated in 8% polyacrylamide gels and transferred to PDVF membranes. Membranes were blocked in 5% BSA and incubated at 4° C. overnight with MMP-13 (Millipore), E-cadherin (BD) and α-tubulin (Sigma) primary antibodies. Membranes were then developed with HRP-conjugated secondary antibody (Amersham) and ECL substrate (Millipore).
The possibilities that ALK5, MEK, PI3K and SRC targeting compounds could modulate the expression of EMT markers, such as E-cadherin and matrix metalloproteinase-13 (MMP-13) under EMT-activated conditions were also investigated (FIG. 7). With the exception of P13K inhibitor GDC-0941, the compounds in general abrogated MMP-13 expression in growth factor-treated samples, PI3K inhibition has been previously shown to augment MMP-13 expression. […] These findings are consistent with previous reports showing that ALK5, MEK and SRC play a role in cell motility and tumor progression, while PI3K predominately regulates cell proliferation.

In the next assay the test system is MMP-13. Description: Western blot of EMT marker MMP-13 in growth factor-treated NBT-II cells. The conditions noted are these: NBT-II cells, 0.5, 2 and 8 μM compound overnight, then growth factor for 24 h (FIG. 7). (In western blotting, separated proteins are transferred to a membrane and probed.)
[4] abbreviates: EGF-induced EMT (20 ng/ml EGF), NBT-II cells, CDR dose response from 6.67 μM.

pIC50: −log10 of the molar value. Like-named read-outs stand apart in the source and are kept apart here. Where only a bound is given, the exact number is not on record here.

In the case of `Cc1cccc(-c2nn(C(=S)Nc3ccccc3)cc2-c2ccnc3ccccc23)n1` [A83-01], the pIC50 in assay [1] (setting [4]) was 7.16; in assay [2] it was 6.89; in assay [3] it was 6.92. The E-cadherin expression result in the assay on E-cadherin is “restored the E-cadherin protein levels”.
In the case of `COc1cc2ncnc(Nc3cccc(Cl)c3)c2cc1OC` [AG1478], the values for the pIC50 in assay [1] (setting [4]), in assay [2] and in assay [3] were 6.48, below 5.30 and below 5.30, respectively.
On to `Cn1cnc2c(F)c(Nc3ccc(Br)cc3Cl)c(C(=O)NOCCO)cc21` [AZD6244], for which the values for the pIC50 in assay [1] (setting [4]), in assay [2] and in assay [3] were 6.08, 6.10 and 6.06, respectively.
For `Cc1cc(N2CCOCC2)cc2[nH]c(-c3c(NC[C@@H](O)c4cccc(Cl)c4)cc[nH]c3=O)nc12` [BMS-536924] the same measures were below 5.30, 5.64 and 6.77.
The matching figures for `O=C(NOCC1CC1)c1ccc(F)c(F)c1Nc1ccc(I)cc1Cl` [CI-1040]: 6.00, 6.09 and 5.92.
On to `NC(=O)c1ccc(-c2nc(-c3ccc4c(c3)OCCO4)c(-c3ccccn3)[nH]2)cc1` [D4476], for which the pIC50 in assay [1] (setting [4]) is 5.96; in assay [2], 5.85; in assay [3], 5.72.
On to `C#Cc1cccc(Nc2ncnc3cc(OCCOC)c(OCCOC)cc23)c1` [Erlotinib], for which the pIC50 in assay [1] is 6.02; in assay [2] it was below 5.30; in assay [3] it was below 5.30.
As to `CS(=O)(=O)N1CCN(Cc2cc3nc(-c4cccc5[nH]ncc45)nc(N4CCOCC4)c3s2)CC1` [GDC-0941], the values for the pIC50 in assay [1] (setting [4]), in assay [2] and in assay [3] were 6.13, 6.42 and 6.30, respectively. For the same compound, in the assay on E-cadherin, the E-cadherin expression result is “restored the E-cadherin protein levels”. In the assay with MMP-13, the MMP-13 expression entry was “exception”.
Take `Cn1cc(-c2ccc3nnc(C(F)(F)c4ccc5ncccc5c4)n3n2)cn1` [JNJ-38877605]: the values for the pIC50 in assay [1] (setting [4]), in assay [2] and in assay [3] were below 5.30, 7.03 and below 5.30, respectively.
With `c1ccc(-c2[nH]ncc2-c2ccnc3ccccc23)nc1` [LY-364947], the pIC50 was 6.85 in assay [1] (setting [4]), 6.74 in assay [2] and 6.62 in assay [3].
For `CS(=O)(=O)CCNCc1ccc(-c2ccc3ncnc(Nc4ccc(OCc5cccc(F)c5)c(Cl)c4)c3c2)o1` [Lapatinib] the same measures were 6.21, below 5.30 and below 5.30.
As for `COc1cc2ncnc(Nc3cccc(Br)c3)c2cc1OC` [PD153035], the “Cell dispersion pattern at T2 (FIG. 1D)” value in assay [1] (NBT-II cells) is listed as “pattern of inhibition”. Further, the results for the pIC50 in assay [1] (setting [4]), in assay [2] and in assay [3] were 6.26, below 5.30 and below 5.30, respectively.
With `CNc1cc2c(Nc3cccc(Br)c3)ncnc2cn1` [PD158780], the pIC50 in assay [1] (setting [4]) was 5.92; in assay [2] it was below 5.30; in assay [3] it was below 5.30.
On to `O=C(NOC[C@H](O)CO)c1ccc(F)c(F)c1Nc1ccc(I)cc1F` [PD0325901], for which the pIC50 was 7.51 in assay [1] (setting [4]), 7.70 in assay [2] and 8.05 in assay [3]. Besides, in the assay on E-cadherin, the E-cadherin expression result was “augment E-cadherin expression”.
Turning to `OCCn1cc(-c2cnc3nnn(Cc4ccc5ncccc5c4)c3n2)cn1` [PF-04217903], the pIC50 in assay [1] (setting [4]) was below 5.30; in assay [2] it was 7.26; in assay [3] it was below 5.30. In assay [2] (spot migration assay), the “Inhibition of HGF-induced EMT (growth factor specificity)” value is “specifically inhibited HGF-induced EMT”.
As for `Oc1cccc(-c2nc(N3CCOCC3)c3oc4ncccc4c3n2)c1` [PI-103], the results for the pIC50 in assay [1] (setting [4]), in assay [2] and in assay [3] were 6.17, 6.42 and 6.40, respectively.
The matching figures for `COc1ccc2c(c1OC)N=C(NC(=O)c1cccnc1)N1CCN=C21` [PIK-90]: 6.02, 6.40 and 6.21.
Consider `Cc1ccc(-c2nn(C(C)(C)C)c3ncnc(N)c23)cc1` [PP1], for which, in assay [1] (NBT-II cells), the “Cell dispersion pattern at T2 (FIG. 1D)” value was “pattern of inhibition”. Besides, the values for the pIC50 in assay [1] (setting [4]), in assay [2] and in assay [3] were 5.64, 5.70 and 5.92, respectively.
On to `NC(=O)c1ccc(-c2nc(-c3ccc4c(c3)OCO4)c(-c3ccccn3)[nH]2)cc1` [SB-431542], for which the pIC50 in assay [1] (setting [4]) was 5.80; in assay [2] it was 6.03; in assay [3] it was 6.09.
In the case of `Fc1ccc(Cl)cc1-c1nc(Nc2ccncc2)c2nccnc2n1` [SD-208], the pIC50 in assay [1] (setting [4]) was 7.07; in assay [2], 6.96; in assay [3], 6.82.
With `COc1cc2ncnc(Nc3ccc(O)c(Br)c3)c2cc1OC` [WHI-P154], the pIC50 in assay [1] (setting [4]) is 6.10; in assay [2] it was below 5.30; in assay [3], below 5.30.
Consider `FC(F)c1nc2ccccc2n1-c1nc(N2CCOCC2)nc(N2CCOCC2)n1` [ZSTK474], for which the pIC50 in assay [1] (setting [4]) was 6.07; in assay [2], 6.39; in assay [3], 6.18.

The record behind these values is patent US20150004620A1, “METHOD OR DEVICE FOR IDENTIFYING INHIBITOR OF EPITHELIAL MESENCHYMAL TRANSITION” (Agency for Science, Technology and Research, priority 2011, published 2015).
